This passage reports IC50 and solubility results from paper PMC6504873, “High-throughput screening of the Plasmodium falciparum cGMP-dependent protein kinase identified a thiazole scaffold which kills erythrocytic and sexual stage parasites” (Scientific Reports, 2019).

For one data set, the target named is T1, HuPKGIα (Homo sapiens, UniProt Q13976).
T1 construct: His6; host or cells: Spodoptera frugiperda 21 cells (baculovirus)
T1 sequence (Q13976 1-671): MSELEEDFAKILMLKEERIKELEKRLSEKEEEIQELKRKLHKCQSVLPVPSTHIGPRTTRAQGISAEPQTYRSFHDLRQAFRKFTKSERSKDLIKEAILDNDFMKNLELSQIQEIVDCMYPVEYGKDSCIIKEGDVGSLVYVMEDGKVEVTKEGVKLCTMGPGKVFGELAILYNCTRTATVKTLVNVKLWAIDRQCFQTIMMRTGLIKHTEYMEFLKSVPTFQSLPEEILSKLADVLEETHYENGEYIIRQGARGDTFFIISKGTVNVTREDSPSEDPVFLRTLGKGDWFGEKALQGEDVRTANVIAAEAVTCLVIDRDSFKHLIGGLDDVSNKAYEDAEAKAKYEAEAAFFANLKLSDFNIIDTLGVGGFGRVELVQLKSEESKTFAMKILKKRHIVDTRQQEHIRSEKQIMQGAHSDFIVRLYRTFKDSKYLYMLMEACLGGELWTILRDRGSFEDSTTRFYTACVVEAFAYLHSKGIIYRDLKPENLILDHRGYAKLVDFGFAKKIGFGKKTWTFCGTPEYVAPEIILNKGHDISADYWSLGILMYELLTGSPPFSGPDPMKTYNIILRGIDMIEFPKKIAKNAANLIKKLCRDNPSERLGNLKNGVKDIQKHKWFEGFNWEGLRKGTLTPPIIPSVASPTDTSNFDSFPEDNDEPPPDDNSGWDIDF
The data set is described as follows: Kinase Glo enzymatic assay, human PKG. It counts as biochemical. The settings on record: human PKGIα; read-out: Hu PKGIα. As for the experimental part: To identify new PKG inhibitor scaffolds, the 1.7 million GlaxoSmithKline Full Diversity collection was tested at a single final concentration of 10 μM against recombinant full length wild type (WT) PfPKG using a Kinase Glo-based assay (Promega). […] Fresh samples of these primary hits were tested in duplicate against WT PfPKG and also against human PKGIα (HuPKGIα) (Supplementary Fig. 1) at a final concentration of 10 μM (confirmation step).
The expression vector encoding His6-cGK1α (HuPKGIα) was used to generate recombinant baculoviruses using the Bac-to-Bac system (Invitrogen) following the manufacturer’s protocol. These baculoviruses were used to infect Spodoptera frugiperda 21 cells (1.5 × 10^6/ml) at a multiplicity of infection of 5 and the infected cells were harvested 48 hours post-infection. His6-cGK1α was purified on Cobalt agarose and dialysed into 50 mM Tris-HCl pH 7.5, 0.1 mM EGTA, 150 mM NaCl, 270 mM sucrose, 0.03% Brij-35, 0.1% 2-mercaptoethanol, 1 mM benzamidine, 0.1 mM phenylmethylsulfonyl fluoride (PMSF).
Initial optimization of the PKG assay was performed manually in 384-well plates and analysed with GraFit 7. The buffer for all assays was 25 mM HEPES pH 7.3 (GIBCO), 10 mM MgCl2 (Sigma), 2 mM DTT (Sigma), 0.01 mM cGMP (Sigma), 0.1 mg/ml BSA (Ambion). Enzymatic activity was tested using a luminescence-based kit (Promega KinaseGlo). Addition of the first reagent depletes the unused ATP and addition of the second reagent converts ADP (product of the kinase reaction) to ATP, which is then measured through a luciferin/luciferase reaction. The amount of luminescence is directly proportional to ATP turnover by the kinase. The kit was chosen because it can be miniaturized to small volumes (i.e. 4 µl) in 1536-well plates, for use in HTS.
We used PKA peptide substrate (SCP0212, Sigma-Aldrich) for WT and TQ PfPKG, dissolved in milliQ water at a final concentration of 5 mM, and Long S6 peptide substrate (produced at the University of Dundee, sequence […]) for HuPKGIα, dissolved in water at a final concentration of 30 mM.
We calculated the Michaelis-Menten (Km) constant for ATP and peptide substrate (PKA or Long S6) for all enzymes using GraphPad Prism (Supplementary Figs 2 and 3 and Supplementary Table 3). In order to identify different types of PKG inhibitors, including ATP competitive or non-competitive inhibitors, as well as inhibitors that bind to the peptide substrate pocket, we performed all assays using ATP and peptide substrate at a concentration equal to the Km. We also determined enzyme activity by calculating ATP turnover (Kcat) over the Km (Supplementary Table 3). The Kcat was calculated as (Vmax*slope)/[E] where Vmax is the maximum velocity and [E] is the concentration of the enzyme.
The plates containing the compounds were prepared at GSK in Upper Providence or Stevenage. Compounds were tested at a single final concentration of 10 µM or in a dose response with a range of concentrations starting from 100 μM to 1.6 nM (1 in 3 serial dilutions). Compounds were dispensed in the plates at the required concentration in a 40 nl volume. All plates (1536-well white Greiner) contained 40 nl of DMSO in lanes 11 and 12 (control 1, 100% enzyme activity) and were empty in lanes 35 and 36 (control 2, 0% enzyme activity). The plates were removed from −20 °C 1 hour before starting the assay. Using a Multidrop Combi dispenser (Thermo Scientific), 2 µl of the buffer containing ATP and the substrate were added to all wells then 2 µl of buffer only were added to column 35 and 36. Finally 2 µl of buffer containing the enzyme were dispensed in all the plate wells except for lanes 35 and 36. After 1 hour incubation at 21 °C 2 µl of ADP-Glo reagent (Promega KinaseGlo kit), previously supplemented with 0.02% CHAPS (Sigma), were added to all wells.

Data set [1] in a line: Aqueous kinetic solubility assay (CAD). It is filed as physicochemical. The note with it: several values in a cell = replicates. As for the experimental part:
[…] of 10 mM DMSO compound solution is diluted to 100 μl with pH7.4 phosphate buffered saline, equilibrated for 1 hour at room temperature and filtered through Millipore MultiscreenHTS-PCF filter plates (MSSL BPC). The filtrate is quantified by suitably calibrated Charged Aerosol Detector[56].

[2] abbreviates: phosphate buffered saline, pH 7.4, aqueous buffer, kinetic from dmso stock.

Converted amounts (≈) assume the structure as drawn.

As to `CCn1cc(-c2ccncn2)c(-c2cccc(NS(=O)(=O)c3cc(F)ccc3F)c2)n1` [Compound 2], the IC50 on HuPKGIα was over 100 µM. In data set [1] (setting [2]), the solubility (commonly the dissolved amount per volume that the medium holds) at 1 h was found to be 412 µM (≈ 182 µg/mL).
As for `Cc1ccc(S(C)(=O)=O)cc1Nc1nccc(-c2sc(CC(N)=O)nc2-c2ccccc2)n1` [Compound 3], the IC50 at HuPKGIα was over 100 µM. Further, the solubility at 1 h in data set [1] (setting [2]) stood at 138 µM (≈ 66.2 µg/mL); in data set [1], 124 µM (≈ 59.5 µg/mL).
Regarding `CC(C)(CN)c1cc(-c2ccc(Cl)c(O)c2)c(-c2ccncc2)o1` [Compound 4], the IC50 at HuPKGIα is 15 µM. The compound further yielded a solubility at 1 h in data set [1] (setting [2]) of 252 µM (≈ 86.4 µg/mL).
With `CCn1c(-c2nonc2N)nc2c(-c3ccccc3)ncc(CN(C)C3CCN(C)CC3)c21` [Compound 5], the IC50 at HuPKGIα was found to be 40.3 µM.
For the compound `CNS(=O)(=O)c1cccc(Nc2ccnc(Nc3cccc(S(=O)(=O)NC)c3)n2)c1` [Compound 6], the IC50 on HuPKGIα worked out at 44.2 µM. The concentration in solution in data set [1] (setting [2]) (solubility at 1 h) was 180 µM (≈ 80.7 µg/mL).
In the same order, the values of `COc1ccc(-c2c(-c3cccc(C(=O)N4CCN(C)CC4)c3)oc3ncnc(N)c23)cc1` [Compound 7] are over 100 µM and 180 µM (≈ 79.8 µg/mL).
Take `COc1ccc(CCNC(=O)CSc2ncnc3[nH]ncc23)cc1OC` [Compound 8]: the IC50 on HuPKGIα was over 100 µM. The same compound had a solubility at 1 h in data set [1] (setting [2]) of 254 µM (≈ 94.9 µg/mL).
As for `COc1cccc(Nc2nc(-c3ccncc3)cc(N3CCN(C)CC3)n2)c1` [Compound 9], on HuPKGIα, the IC50 was over 100 µM. For the same compound, in data set [1] (setting [2]), the solubility at 1 h came out at 82 µM (≈ 30.9 µg/mL).
As to `COc1cc(CS(C)(=O)=O)ccc1Nc1nc(Nc2cc(F)ccc2C(N)=O)c2cc[nH]c2n1` [Compound 10], the IC50 on HuPKGIα was over 100 µM.
For the compound `O=C(N[C@@H](CO)c1ccccc1)c1ccc2cncc(-c3cn[nH]c3)c2n1` [Compound 11], at HuPKGIα, the IC50 stood at 6.1 µM. The compound further came in with a solubility at 1 h in data set [1] (setting [2]) of 4 µM (≈ 1.44 µg/mL).
As to `NCCNCc1ccc(-c2cc3ccncc3cc2OC2CCNCC2)s1` [Compound 12], on HuPKGIα, the IC50 worked out at 13.8 µM.
In the case of `CNCCOc1cnc(-c2ccoc2C)c(-c2ccc3cnccc3c2)c1` [Compound 13], the IC50 on HuPKGIα was 7.4 µM. In data set [1] (setting [2]), the solubility at 1 h is 418 µM (≈ 150 µg/mL).
For the compound `O=C(c1cccc(OCc2cccnc2)c1)N1CCc2sccc2C1CN1CCCCC1` (stereo not drawn) [Compound 14], the IC50 on HuPKGIα was over 100 µM. Moreover, in data set [1] (setting [2]), the concentration in solution (solubility at 1 h) came to 168 µM (≈ 75.2 µg/mL).
On to `Nc1ccc2c(-c3ccncc3)c(-c3ccc(Cl)c(O)c3)[nH]c2n1` [Compound 15], for which the IC50 at HuPKGIα worked out at 45.2 µM.
`Nc1nc(Nc2cccc3cnccc23)nn1C(=O)C1CCCCC1` [Compound 16]: the IC50 at HuPKGIα amounted to 22.4 µM. In data set [1] (setting [2]), this compound registered a solubility at 1 h of 69 µM (≈ 23.2 µg/mL).
